The numbers were not newly measured in patent EP0642530B1, “DERIVATIVES OF DOLASTATIN” (BASF Aktiengesellschaft, priority 1992, dated 1993), which cites them from elsewhere.

For the series the following is noted: background statement, no method given.

As for Dolastatin-10, the stability to acid result is “unstable to acid”.
